Patent US6090834A, “Substituted oxazoles for the treatment of inflammation” (G.D. Searle & Co., priority 1998, dated 2000)

How the values were obtained:
[1] = test system: COX-1; assay: COX-1 activity in vitro (PGE2 formed, ELISA); format: biochemical, human or murine; details: recombinant enzyme, arachidonic acid 10 μM, pH 8.0; read-out: COX-1 ID50
Experimental: (§1) Evaluation of COX I and COX II activity in vitro
(§2) The COX-2 inhibition activity of the compounds of this invention illustrated in the Examples was determined by the following methods. a. Preparation of recombinant COX baculoviruses
(§3) Recombinant COX-1 and COX-2 were prepared as described by Gierse et al, [J. Biochem., 305, 479-84 (1995)]. A 2.0 kb fragment containing the coding region of either human or murine COX-1 or human or murine COX-2 was cloned into a BamH1 site of the baculovirus transfer vector pVL1393 (Invitrogen) to generate the baculovirus transfer vectors for COX-1 and COX-2 in a manner similar to the method of D. R. O'Reilly et al (Baculovirus Expression Vectors: A Laboratory Manual (1992)). Recombinant baculoviruses were isolated by transfecting 4 μg of baculovirus transfer vector DNA into SF9 insect cells (2×10^8) along with 200 ng of linearized baculovirus plasmid DNA by the calcium phosphate method. See M. D. Summers and G. E. Smith, A Manual of Methods for Baculovirus vectors and Insect Cell Culture Procedures, Texas Agric. Exp. Station Bull. 1555 (1987). Recombinant viruses were purified by three rounds of plaque purification and high titer (10^7 -10^8 pfu/ml) stocks of virus were prepared. For large scale production, SF9 insect cells were infected in 10 liter fermentors (0.5×10^6 /ml) with the recombinant baculovirus stock such that the multiplicity of infection was 0.1. After 72 hours the cells were centrifuged and the cell pellet homogenized in Tris/Sucrose (50 mM: 25%, pH 8.0) containing 1% 3-[(3-cholamidopropyl)dimethylammonio]-1-propanesulfonate (CHAPS). The homogenate was centrifuged at 10,000×G for 30 minutes, and the resultant supernatant was stored at -80° C. before being assayed for COX activity. […]
(§4) b. Assay for COX-1 and COX-2 activity
(§5) COX activity was assayed as PGE2 formed/μg protein/time using an ELISA to detect the prostaglandin released. CHAPS-solubilized insect cell membranes containing the appropriate COX enzyme were incubated in a potassium phosphate buffer (50 mM, pH 8.0) containing epinephrine, phenol, and heme with the addition of arachidonic acid (10 μM). Compounds were pre-incubated with the enzyme for 10-20 minutes prior to the addition of arachidonic acid. Any reaction between the arachidonic acid and the enzyme was stopped after ten minutes at 37° C./room temperature by transferring 40 μl of reaction mix into 160 μl ELISA buffer and 25 μM indomethacin. The PGE2 formed was measured by standard ELISA technology (Cayman Chemical).

[2] = test system: COX-2; assay: COX-2 activity in vitro (PGE2 formed, ELISA); format: biochemical, human or murine; details: recombinant enzyme, arachidonic acid 10 μM, pH 8.0; read-out: COX II ID50
Experimental: as §1, §2, §3, §4, §5

Compound | IC50 [1] | IC50 [2]
NC(=O)c1nc(-c2ccccc2)c(-c2ccc(S(N)(=O)=O)cc2)o1 [Example 72, 5-(4-aminosulfonylphenyl)-4-phenyl-oxazole-2-carboxamide] | > 100 µM | 2.2 µM
NS(=O)(=O)c1ccc(-c2oc(Cl)nc2-c2ccccc2)cc1 [Example 45, 4-[2-chloro-4-phenyl-5-oxazolyl]benzenesulfonamide] | 6.5 µM | < 0.1 µM
CN(C)c1ccc(-c2nc(C(F)(F)F)oc2-c2ccc(S(N)(=O)=O)cc2)cc1 [Example 65, 4-[4-Dimethylaminophenyl-2-trifluoromethyl-5-oxazolyl]benzenesulfonamide] | < 0.1 µM | < 0.1 µM
COCc1nc(-c2ccccc2)c(-c2ccc(S(N)(=O)=O)cc2)o1 [Example 73, 4-[2-methoxymethyl-4-phenyl-oxazolyl]benzenesulfonamide] | 47.5 µM | < 0.1 µM
CS(=O)(=O)c1ccc(-c2oc(CCC3CCCCC3)nc2-c2ccc(F)cc2)cc1 [Example 32, 2-(2-cyclohexylethyl)-4-(4-fluorophenyl)-5-[4-(methylsulfonyl)phenyl]oxazole] | 15.9 µM | < 0.1 µM
Cc1nc(-c2ccccc2)c(-c2ccc(S(N)(=O)=O)cc2)o1 [Example 51, 4-[2-methyl-4-phenyl-5-oxazolyl]benzenesulfonamide] | 14 µM | < 0.1 µM
COC(=O)CCc1nc(-c2ccc(S(C)(=O)=O)cc2)c(-c2ccc(F)cc2)o1 [Example 15, Methyl 3-[5-(4-fluorophenyl)-4-[4-(methylsulfonyl)phenyl]]-2-oxazolepropanoate] | > 30 µM | 0.2 µM
4-[2-(methylsulfonyl)-4-phenyl-5-oxazolyl]benzenesulfonamide [Example 53] |  | 0.5 µM
NS(=O)(=O)c1ccc(-c2oc(CCC(=O)O)nc2-c2ccccc2)cc1 [Example 43, [5-(4-aminosulfonylphenyl)-4-phenyl]-2-oxazolepropionic acid] | 2.3 µM | 3.1 µM
COc1ccc(-c2oc(CC(=O)O)nc2-c2ccc(S(N)(=O)=O)cc2)cc1F [Example 66, [4-(4-aminosulfonylphenyl)-5-(3-fluoro-4-methoxyphenyl)]-2-oxazoleacetic acid] | 21 µM | 13 µM
CCOC(=O)C(Cc1ccccc1)c1nc(-c2ccc(F)cc2)c(-c2ccc(S(C)(=O)=O)cc2)o1 (centres unmarked) [Example 33] | 3.1 µM | 0.05 µM
CN(C)c1nc(-c2ccccc2)c(-c2ccc(S(N)(=O)=O)cc2)o1 [Example 58, 4-[2-(N,N-dimethylamino)-4-phenyl-5-oxazolyl]benzenesulfonamide] | 31 µM | < 0.1 µM
NS(=O)(=O)c1ccc(-c2oc(S)nc2-c2ccccc2)cc1 [Example 46, 4-[2-mercapto-4-phenyl-5-oxazolyl]benzenesulfonamide] | 1.7 µM | 0.5 µM
4-[2-methylsulfinyl)-4-phenyl-5-oxazolyl]benzenesulfonamide [Example 52] | 35 µM | 
NS(=O)(=O)c1ccc(-c2nc(CC(=O)O)oc2-c2ccc(Cl)c(Cl)c2)cc1 [Example 40, [4-(4-aminosulfonylphenyl)-5-(3.4-dichlorophenyl)]-2-oxazoleacetic acid] | 26 µM | < 0.1 µM

Results, then the compound that gave them:

IC50 [1] | IC50 [2] | Compound
3.4 µM | 7 µM | NS(=O)(=O)c1ccc(-c2nc(CC(=O)O)oc2-c2ccc(Cl)cc2)cc1 [Example 37, [4-(4-aminosulfonylphenyl)-5-(4-chlorophenyl)]-2-oxazoleacetic acid]
4.1 µM | < 0.1 µM | NS(=O)(=O)c1ccc(-c2oc(OCC(F)(F)F)nc2-c2ccccc2)cc1 [Example 49]
51 µM | 0.1 µM | COc1c(F)cc(-c2oc(C(F)(F)F)nc2-c2ccc(S(N)(=O)=O)cc2)cc1Br [Example 71, 4-[5-(3-bromo-4-methoxy-5-fluorophenyl)-2-trifluoromethyl-4-oxazolyl]benzenesulfonamide]
33 µM | 0.8 µM | NS(=O)(=O)c1ccc(-c2nc(C(Br)C(=O)O)oc2-c2ccc(Cl)cc2)cc1 (centres unmarked) [Example 67]
> 30 µM | > 10 µM | Cc1nc(-c2ccc(S(C)(=O)=O)cc2)c(-c2ccc(F)cc2)o1 [Example 14, 5-(4-Fluorophenyl)-2-methyl-4-[4-(methylsulfonyl)phenyl]oxazole]
7.4 µM | < 0.1 µM | CSc1nc(-c2ccccc2)c(-c2ccc(S(N)(=O)=O)cc2)o1 [Example 50, 4-[2-Methylthio-4-phenyl-5-oxazolyl]benzenesulfonamide]
3 µM | < 0.1 µM | NS(=O)(=O)c1ccc(-c2oc(Oc3c(F)c(F)c(F)c(F)c3F)nc2-c2ccccc2)cc1 [Example 54, 4-[2-(2,3,4,5,6-pentafluorophenoxy)-4-phenyl-5-oxazolyl]benzenesulfonamide]
1.1 µM | < 0.1 µM | NS(=O)(=O)c1ccc(-c2oc(C(F)(F)F)nc2-c2ccccc2)cc1 [Example 64, 4-[4-phenyl-2-trifluoromethyl-5-oxazolyl]benzenesulfonamide]
> 100 µM | 60.7 µM | NS(=O)(=O)c1ccc(-c2nc(CC(=O)O)oc2-c2ccc(F)c(F)c2)cc1 [Example 41]
79 µM | 0.5 µM | COc1ccc(-c2oc(C)nc2-c2ccc(S(N)(=O)=O)cc2)cc1F [Example 69]
24.7 µM | 1.4 µM | NS(=O)(=O)c1ccc(-c2oc(CC(=O)O)nc2-c2ccc(Cl)cc2)cc1 [Example 36, [5-(4-aminosulfonylphenyl)-4-(4-chlorophenyl)]-2-oxazoleacetic acid]
> 100 µM | < 0.1 µM | NS(=O)(=O)c1ccc(-c2oc(CO)nc2-c2ccccc2)cc1 [Example 75, 4-[2-hydroxymethyl-4-phenyl-5-oxazolyl]benzenesulfonamide]
2 µM | < 0.1 µM | Cc1ccc(-c2nc(C(F)(F)F)oc2-c2ccc(S(C)(=O)=O)cc2)cc1 [Example 68, 4-(4-methylphenyl)-5-(4-methylsulfonylphenyl)-2-trifluoromethyl-oxazole]
1 µM | < 0.1 µM | NS(=O)(=O)c1ccc(-c2oc(Oc3cccc(Cl)c3)nc2-c2ccccc2)cc1 [Example 47]
0.2 µM | < 0.1 µM | CCOC(=O)Cc1nc(-c2ccc(S(N)(=O)=O)cc2)c(-c2ccc(OC)c(F)c2)o1 [Example 34, ethyl [4-(4-aminosulfonylphenyl)-5-(3-fluoro-4-methoxyphenyl)]-2-oxazoleacetate]
72 µM | < 0.1 µM | NS(=O)(=O)c1ccc(-c2oc(CC(=O)O)nc2-c2ccccc2)cc1 [Example 38, [5-(4-aminosulfonylphenyl)-4-phenyl]-2-oxazoleaceticacid]
0.4 µM | < 0.1 µM | NS(=O)(=O)c1ccc(-c2nc(C(F)(F)F)oc2-c2ccc(Cl)cc2)cc1 [Example 59, 4-[5-(4-chlorophenyl)-2-trifluoromethyl-4-oxazolyl]benzenesulfonamide]
4.5 µM | < 0.1 µM | CCOC(=O)c1ccccc1Oc1nc(-c2ccccc2)c(-c2ccc(S(N)(=O)=O)cc2)o1 [Example 56, ethyl 2-[[5-(4-aminosulfonylphenyl)-4-phenyl-2-oxazolyl]oxy]benzoate]
11.4 µM | < 0.1 µM | NS(=O)(=O)c1ccc(-c2nc(C(F)(F)F)oc2-c2ccc(F)c(F)c2)cc1 [Example 42, 4-[5-(3.4-difluorophenyl)-2-trifluoromethyl-4-oxazolyl]benzenesulfonamide]
> 100 µM | 79 µM | NS(=O)(=O)c1ccc(-c2ocnc2-c2ccccc2)cc1 [Example 44, 4-[4-phenyl-5-oxazolyl]benzenesulfonamide]
3.2 µM | < 0.1 µM | CCOC(=O)c1cccc(Oc2nc(-c3ccccc3)c(-c3ccc(S(N)(=O)=O)cc3)o2)c1 [Example 57, ethyl 3-[[5-(4-aminosulfonylphenyl)-4-phenyl-2-oxazolyl]oxy]benzoate]
> 100 µM | 79 µM | NS(=O)(=O)c1ccc(-c2nc(CC(=O)O)oc2-c2ccc(F)c(Cl)c2)cc1 [Example 39, [4-(4-aminosulfonylphenyl)-5-(3-chloro-4-fluorophenyl)]-2-oxazoleacetic acid]
0.3 µM | 2.1 µM | NS(=O)(=O)c1ccc(-c2oc(SCC(=O)O)nc2-c2ccccc2)cc1 [Example 48, 5-(4-aminosulfonylphenyl)-4-phenyl-2-oxazolemercaptoacetic acid]
